This note sets out measurements from publication PMC9457736, “Dual Inhibition of HIV-1 and Cathepsin L Proteases by Sarcandra glabra” (Molecules, 2022).

Test [1] deals with T1, recombinant HIV-1 protease (wild type) (Human immunodeficiency virus type 1 group M subtype B, UniProt P04585).
T1 construct: 8 μL of recombinant HIV-1 protease (wild type); purchased AnaSpec Inc
In words: FRET assay of HIV-1 protease inhibition. The following applies: for inhibition at 1000 µg/mL / HIV-1 PR Inhibition (%) ± SD at 1.0 (mg/mL): 1.0 mg/mL; for inhibition at 1000 µg/mL / HIV-1 PR Inhibition (%) ± SD at 1.0 (mg/mL) / IC50 ± RSD% HIV-1 PR: n = 3; for inhibition at 1000 µg/mL: read-out: HIV-1 PR Inhibition (%) ± SD at 1.0 (mg/mL). In kind it is biochemical. The method, then:
Enzyme activities of HIV-1, Cathepsin L, and renin proteases were determined by a FRET assay, following the manufacturer’s protocol. Briefly, the HIV-1 PR activity was assayed using 384-well microplates with a well volume of 120 μL (Corning Incorporated, Corning, NY, USA). […] Reactions were then initiated by adding 10 μL of the HIV protease substrate (50X dilution with assay buffer). Fluorescence was measured using a EX/Em = 490/520 nm filter module on a Synergy II microplate reader. […] Briefly, 2 μL test compound solutions (0.01~1.0 mg/mL) and 8 µL of human recombinant Cathepsin L protease (200× dilution with DTT-containing assay buffer, final concentration: 0.5 µg/mL) were added in the microplate wells. The microplate was pre-incubated at room temperature for 10 min. The enzymatic reaction was subsequently initiated by adding 10 μL of freshly diluted Cathepsin L substrate solution (100× dilution with assay buffer, final concentration: 0.01 mM) into each well. The microplate was gently shaken for 30 s before being incubated at 37 °C for 30 min. Fluorescence was measured at an emission of 520 nm and excitation of 490 nm. A Cathepsin L inhibitor, (100× dilution with assay buffer, final concentration: 1 µM) was used as a positive control. IC50 values of tested compounds were calculated by Microsoft Office Excel software using three different concentrations.

Test [2] concerns the target T2, human recombinant Cathepsin L protease (Homo sapiens, UniProt P07711).
T2 construct: purchased AnaSpec Inc. SensoLyte 520 Cathepsin L Protease Assay Kit, Lot#: AS72218-1010
In words: FRET assay of Cathepsin L protease inhibition (SensoLyte 520 kit). Conditions: for inhibition at 10 µg/mL: read-out: CatL PR Inhibition (%) ± SD at 0.01 (mg/mL). The class given is biochemical. The method, then:
Enzyme activities of HIV-1, Cathepsin L, and renin proteases were determined by a FRET assay, following the manufacturer’s protocol. Briefly, the HIV-1 PR activity was assayed using 384-well microplates with a well volume of 120 μL (Corning Incorporated, Corning, NY, USA). Then, 8 μL of recombinant HIV-1 protease (wild type, NCBI accessiob: NC-001802, final concentration: 0.01 mg/mL (80 ng/well), AnaSpec Inc., Fremont, San Jose, CA, USA) was mixed with 2 μL of the test compounds (0.01~1.0 mg/mL). Reactions were then initiated by adding 10 μL of the HIV protease substrate (50X dilution with assay buffer). Fluorescence was measured using a EX/Em = 490/520 nm filter module on a Synergy II microplate reader. To evaluate the inhibitory activity of the test compounds towards Cathepsin L protease, fluorimetric SensoLyte^TM 520 Cathepsin L Protease Assay Kit (Lot#: AS72218-1010, AnaSpec Inc. San Jose, CA, USA) was used. Briefly, 2 μL test compound solutions (0.01~1.0 mg/mL) and 8 µL of human recombinant Cathepsin L protease (200× dilution with DTT-containing assay buffer, final concentration: 0.5 µg/mL) were added in the microplate wells. The microplate was pre-incubated at room temperature for 10 min. The enzymatic reaction was subsequently initiated by adding 10 μL of freshly diluted Cathepsin L substrate solution (100× dilution with assay buffer, final concentration: 0.01 mM) into each well. The microplate was gently shaken for 30 s before being incubated at 37 °C for 30 min. Fluorescence was measured at an emission of 520 nm and excitation of 490 nm. A Cathepsin L inhibitor, (100× dilution with assay buffer, final concentration: 1 µM) was used as a positive control. IC50 values of tested compounds were calculated by Microsoft Office Excel software using three different concentrations.

Like-named read-outs stand apart in the source and are kept apart here. Bounds are passed on as bounds.

T2 sequence (P07711 114-333): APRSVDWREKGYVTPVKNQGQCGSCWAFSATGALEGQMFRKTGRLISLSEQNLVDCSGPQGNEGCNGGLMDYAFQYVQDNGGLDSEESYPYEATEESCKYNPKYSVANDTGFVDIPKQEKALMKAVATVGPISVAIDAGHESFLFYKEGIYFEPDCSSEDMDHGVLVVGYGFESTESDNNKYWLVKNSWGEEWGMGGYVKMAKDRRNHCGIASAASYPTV

Regarding `C[N+](C)(C)CC(=O)O` [Compound 1, Betaine], in test [1], the inhibition at 1000 µg/mL turned out to be 8.95 ± 4.61%. For the same molecule, the inhibition at 10 µg/mL in test [2] (0.01 mg/mL, n = 3) is -15.5 ± 5.76%.
For the molecule `O=C(O)[C@]1(O)C[C@@H](O)[C@@H](O)[C@H](O)C1` [Compound 2, D-(-)-Quinic acid], the inhibition at 1000 µg/mL in test [1] is -20.1 ± 2.61%. For the same molecule, in test [2], the “inhibition of CatL PR (in words)” value was “no inhibition” and the inhibition at 10 µg/mL is -0.32 ± 8.61%.
Consider `COc1ccc(C(C)=O)c(O)c1` [Compound 3, Paeonol], for which, in test [1], the inhibition at 1000 µg/mL is -12.6 ± 0.26%. The inhibition at 10 µg/mL in test [2] (0.01 mg/mL, n = 3) was -15 ± 0.56%.
Turning to `O=C(O)c1ccc(O)c(O)c1` [Compound 4, Protocatechuic acid], in test [1], the inhibition at 1000 µg/mL is 47.9 ± 1.82%. The inhibition at 10 µg/mL in test [2] stood at 42.1 ± 2.25%.
For `O=C(/C=C/c1ccc(O)c(O)c1)O[C@@H]1C[C@](O)(C(=O)O)C[C@@H](O)[C@H]1O` [Compound 5, Chlorogenic acid], the inhibition at 10 µg/mL in test [2] (0.01 mg/mL, n = 3) was 40.8 ± 2.54%.
In the case of `O=c1ccc2ccc(O)cc2o1` [Compound 6, 7-Hydroxycoumarine], the inhibition at 1000 µg/mL in test [1] came to 28.9 ± 4.41%. Also, in test [2] (0.01 mg/mL, n = 3), the inhibition at 10 µg/mL was found to be 22.6 ± 0.53%.
Consider `O=C(O)/C=C/c1ccc(O)c(O)c1` [Compound 7, Caffeic acid], for which, in test [1], the IC50 was 2660 µM, the “HIV-1 PR Inhibition (%) ± SD at 1.0 (mg/mL)” value (“HIV-1 PR Inhibition (%) ± SD” for short) was 65.9 ± 0.00%, the inhibition at 1000 µg/mL is over 50% and the “IC50 ± RSD% HIV-1 PR” value is 0.48 ± 0.124%. Also, the inhibition at 10 µg/mL in test [2] (0.01 mg/mL, n = 3) is 32.1 ± 1.68%.
On to `COc1cc2ccc(=O)oc2c(O)c1O` [Compound 8, Fraxetin], for which the inhibition at 1000 µg/mL in test [1] worked out at 24.1 ± 6.7%. In addition, in test [2] (0.01 mg/mL, n = 3), the inhibition at 10 µg/mL came to 15 ± 5.25%.
With `C[C@@H]1O[C@@H](O[C@H]2C(=O)c3c(O)cc(O)cc3O[C@@H]2c2ccc(O)c(O)c2)[C@H](O)[C@H](O)[C@H]1O` [Compound 9, Astilbin], in test [1], the “HIV-1 PR Inhibition (%) ± SD” value is recorded as 68.4 ± 5.45%, the inhibition at 1000 µg/mL is over 50% and the “IC50 ± RSD% HIV-1 PR” value is on record as 0.54 ± 4.34%. In addition, the inhibition at 10 µg/mL in test [2] (0.01 mg/mL, n = 3) was -24.7 ± 8.14%.
Turning to `COc1cc2ccc(=O)oc2c(OC)c1O` [Compound 10, Isofraxidin], the inhibition at 1000 µg/mL in test [1] was -2.09 ± 8.57%. Moreover, the inhibition at 10 µg/mL in test [2] (0.01 mg/mL, n = 3) is 27 ± 2.37%.
In the case of `O=C(C=Cc1ccc(O)c(O)c1)OC1CC(O)(C(=O)O)CC(O)C1OC(=O)C=Cc1ccc(O)c(O)c1` (stereo not shown) [Compound 11, 3,4-Dicaffeoylquinic acid], in test [1], the IC50 is 252 µM, the “HIV-1 PR Inhibition (%) ± SD” value is on record as 86.1 ± 3.92% and the “IC50 ± RSD% HIV-1 PR” value is 0.13 ± 2.84%. In test [1] (listed as 3,4-dicaffeoylquinic acid), the “HIV-1 PR Inhibition (%) ± SD” value was “more than 50%”. In test [2], the “inhibition of CatL PR (in words)” value is listed as “no inhibition”. For the same molecule, the inhibition at 10 µg/mL in test [2] (0.01 mg/mL, n = 3) was -31.3 ± 6.24%.
Take `O=C(/C=C/c1ccc(O)c(O)c1)O[C@H](Cc1ccc(O)c(O)c1)C(=O)O` [Compound 12, Rosmarinic acid]: in test [2] (0.01 mg/mL, n = 3), the inhibition at 10 µg/mL turned out to be 19.2 ± 1.7%.
As to `COc1cc(O)cc2c1C(=O)C[C@@H](c1ccccc1)O2` [Compound 13, Alpinetin], in test [1], the “HIV-1 PR Inhibition (%) ± SD” value is recorded as 62.3 ± 0.96%, the inhibition at 1000 µg/mL is over 50% and the “IC50 ± RSD% HIV-1 PR” value is listed as 0.62 ± 3.44%. In addition, the inhibition at 10 µg/mL in test [2] (0.01 mg/mL, n = 3) stood at 11.9 ± 8.99%.
On to `C[C@@H]1CC[C@H]2[C@@H](C)C(=O)O[C@@H]3O[C@@]4(C)CC[C@@H]1[C@]32OO4` [Compound 14, Artemisinin], for which, in test [1], the “HIV-1 PR Inhibition (%) ± SD” value turned out to be 50.8 ± 0.58%, the inhibition at 1000 µg/mL was over 50% and the “IC50 ± RSD% HIV-1 PR” value was 0.95 ± 2.77%. The inhibition at 10 µg/mL in test [2] (0.01 mg/mL, n = 3) is -1.1 ± 0.52%.

What is called IC50 is the concentration that inhibits the measured activity by half.
